# Organism: Rattus norvegicus
# Experiment: Open TG-GATES - Regimen: Daily Repeat
# Format: toxicity, organism-based, Sprague-Dawley
# Parameters: regimen Daily Repeat, gender Male, age 6 weeks
# Conditions: in vivo, po, 0 mg/kg, route gavage, dose level Control; for APTT / Bas / Eos / Fbg / Hb / Ht / Lym / MCH / MCHC / MCV / Mono / Neu / PT / Plat / RBC / Ret / WBC: tissue Blood; for KIDNEY_L / KIDNEY_R / KIDNEY_TOTAL: tissue Kidney; for LIVER: tissue Liver; for A/G / ALP / ALT / AST / BUN / CRE / Ca / Cl / DBIL / GLC / IP / K / LDH / Na / PL / RALB / TBIL / TC / TG / TP / gamma-GTP: tissue Plasma
smiles,measurement,setting,value
CN1C(=O)OC(C)(C)C1=O [TRIMETHADIONE],TERMINAL_BW,"72 h, time 3 day",243.9 g
same,APTT,"72 h, time 3 day",17 s
same,Bas,"72 h, time 3 day",0%
same,Eos,"72 h, time 3 day",0.8%
same,Fbg,"72 h, time 3 day",265 mg/dL
same,Hb,"72 h, time 3 day",13.7 g/dL
same,Ht,"72 h, time 3 day",41%
same,Lym,"72 h, time 3 day",79.8%
same,MCH,"72 h, time 3 day",21.4 pg
same,MCHC,"72 h, time 3 day",33.4%
same,MCV,"72 h, time 3 day",64.2 fL
same,Mono,"72 h, time 3 day",2.6%
same,Neu,"72 h, time 3 day",16.4%
same,PT,"72 h, time 3 day",13.3 s
same,Plat,"72 h, time 3 day",131 x10_4/uL
same,RBC,"72 h, time 3 day",639.2 x10_4/ul
same,Ret,"72 h, time 3 day",7.2%
same,WBC,"72 h, time 3 day",85.5 x10_2/uL
same,KIDNEY_L,"72 h, time 3 day",1 g
same,KIDNEY_R,"72 h, time 3 day",1 g
same,KIDNEY_TOTAL,"72 h, time 3 day",2 g
same,LIVER,"72 h, time 3 day",11.2 g
same,A/G,"72 h, time 3 day",0.8
same,ALP,"72 h, time 3 day",1967.6 IU/L
same,ALT,"72 h, time 3 day",47.4 IU/L
same,AST,"72 h, time 3 day",78 IU/L
same,BUN,"72 h, time 3 day",15 mg/dL
same,CRE,"72 h, time 3 day",0.2 mg/dL
same,Ca,"72 h, time 3 day",11.2 mg/dL
same,Cl,"72 h, time 3 day",106 meq/L
same,DBIL,"72 h, time 3 day",0.006 mg/dL
same,GLC,"72 h, time 3 day",180.6 mg/dL
same,IP,"72 h, time 3 day",7 mg/dL
same,K,"72 h, time 3 day",4.6 meq/L
same,LDH,"72 h, time 3 day",109.4 IU/L
same,Na,"72 h, time 3 day",141.6 meq/L
same,PL,"72 h, time 3 day",166.6 mg/dL
same,RALB,"72 h, time 3 day",2.6 g/dL
same,TBIL,"72 h, time 3 day",0.05 mg/dL
same,TC,"72 h, time 3 day",83.6 mg/dL
same,TG,"72 h, time 3 day",141.8 mg/dL
same,TP,"72 h, time 3 day",5.7 g/dL
same,gamma-GTP,"72 h, time 3 day",1 IU/L
same,TERMINAL_BW,"[…], time 7 day",282.3 g
same,TERMINAL_BW,"[…], time 14 day",333.6 g
same,TERMINAL_BW,"[…], time 28 day",429.2 g
same,APTT,"[…], time 7 day",17.7 s
same,Bas,"[…], time 7 day",0.6%
same,Eos,"[…], time 7 day",1%
same,Fbg,"[…], time 7 day",263.8 mg/dL
same,Hb,"[…], time 7 day",13.8 g/dL
same,Ht,"[…], time 7 day",41%
same,Lym,"[…], time 7 day",79.4%
same,MCH,"[…], time 7 day",21.4 pg
same,MCHC,"[…], time 7 day",33.6%
same,MCV,"[…], time 7 day",63.9 fL
same,Mono,"[…], time 7 day",2.4%
same,Neu,"[…], time 7 day",16.4%
same,PT,"[…], time 7 day",13.9 s
same,Plat,"[…], time 7 day",123.3 x10_4/uL
same,RBC,"[…], time 7 day",641.8 x10_4/ul
same,Ret,"[…], time 7 day",5.8%
same,WBC,"[…], time 7 day",89.3 x10_2/uL
same,APTT,"[…], time 14 day",19.5 s
same,Bas,"[…], time 14 day",0.4%
same,Eos,"[…], time 14 day",1.2%
same,Fbg,"[…], time 14 day",284.6 mg/dL
same,Hb,"[…], time 14 day",14.9 g/dL
same,Ht,"[…], time 14 day",43.9%
same,Lym,"[…], time 14 day",77.8%
same,MCH,"[…], time 14 day",20.8 pg
same,MCHC,"[…], time 14 day",33.9%
same,MCV,"[…], time 14 day",61.2 fL
same,Mono,"[…], time 14 day",2%
same,Neu,"[…], time 14 day",18.6%
same,PT,"[…], time 14 day",13.4 s
same,Plat,"[…], time 14 day",127.4 x10_4/uL
same,RBC,"[…], time 14 day",719 x10_4/ul
same,Ret,"[…], time 14 day",4.4%
same,WBC,"[…], time 14 day",99.3 x10_2/uL
same,APTT,"[…], time 28 day",17.5 s
same,Bas,"[…], time 28 day",0%
same,Eos,"[…], time 28 day",1.2%
same,Fbg,"[…], time 28 day",265.2 mg/dL
same,Hb,"[…], time 28 day",15.4 g/dL
same,Ht,"[…], time 28 day",44.4%
same,Lym,"[…], time 28 day",78.4%
same,MCH,"[…], time 28 day",19.8 pg
same,MCHC,"[…], time 28 day",34.8%
same,MCV,"[…], time 28 day",57.1 fL
same,Mono,"[…], time 28 day",1.6%
same,Neu,"[…], time 28 day",18.2%
same,PT,"[…], time 28 day",13.7 s
same,Plat,"[…], time 28 day",109.9 x10_4/uL
same,RBC,"[…], time 28 day",778.2 x10_4/ul
same,Ret,"[…], time 28 day",2.6%
same,WBC,"[…], time 28 day",114 x10_2/uL
same,KIDNEY_L,"[…], time 7 day",1.1 g
same,KIDNEY_R,"[…], time 7 day",1.1 g
same,KIDNEY_TOTAL,"[…], time 7 day",2.3 g
same,KIDNEY_L,"[…], time 14 day",1.2 g
same,KIDNEY_R,"[…], time 14 day",1.2 g
same,KIDNEY_TOTAL,"[…], time 14 day",2.4 g
same,KIDNEY_L,"[…], time 28 day",1.5 g
same,KIDNEY_R,"[…], time 28 day",1.5 g
same,KIDNEY_TOTAL,"[…], time 28 day",2.9 g
same,LIVER,"[…], time 7 day",12.5 g
same,LIVER,"[…], time 14 day",14.3 g
same,LIVER,"[…], time 28 day",16.8 g
same,A/G,"[…], time 7 day",0.8
same,ALP,"[…], time 7 day",1722.8 IU/L
same,ALT,"[…], time 7 day",38.2 IU/L
same,AST,"[…], time 7 day",67.4 IU/L
same,BUN,"[…], time 7 day",16.8 mg/dL
same,CRE,"[…], time 7 day",0.2 mg/dL
same,Ca,"[…], time 7 day",11 mg/dL
same,Cl,"[…], time 7 day",105.2 meq/L
same,DBIL,"[…], time 7 day",0.01 mg/dL
same,GLC,"[…], time 7 day",191.8 mg/dL
same,IP,"[…], time 7 day",6.9 mg/dL
same,K,"[…], time 7 day",4.1 meq/L
same,LDH,"[…], time 7 day",107.8 IU/L
same,Na,"[…], time 7 day",144 meq/L
same,PL,"[…], time 7 day",165.4 mg/dL
same,RALB,"[…], time 7 day",2.6 g/dL
same,TBIL,"[…], time 7 day",0.052 mg/dL
same,TC,"[…], time 7 day",85.6 mg/dL
same,TG,"[…], time 7 day",109 mg/dL
same,TP,"[…], time 7 day",5.8 g/dL
same,gamma-GTP,"[…], time 7 day",1 IU/L
same,A/G,"[…], time 14 day",0.8
same,ALP,"[…], time 14 day",1703.8 IU/L
same,ALT,"[…], time 14 day",42 IU/L
same,AST,"[…], time 14 day",73.8 IU/L
same,BUN,"[…], time 14 day",17.2 mg/dL
same,CRE,"[…], time 14 day",0.2 mg/dL
same,Ca,"[…], time 14 day",10.8 mg/dL
same,Cl,"[…], time 14 day",107.2 meq/L
same,DBIL,"[…], time 14 day",0.004 mg/dL
same,GLC,"[…], time 14 day",208.2 mg/dL
same,IP,"[…], time 14 day",6.8 mg/dL
same,K,"[…], time 14 day",3.9 meq/L
same,LDH,"[…], time 14 day",98.8 IU/L
same,Na,"[…], time 14 day",145.6 meq/L
same,PL,"[…], time 14 day",164.6 mg/dL
same,RALB,"[…], time 14 day",2.7 g/dL
same,TBIL,"[…], time 14 day",0.042 mg/dL
same,TC,"[…], time 14 day",80.8 mg/dL
same,TG,"[…], time 14 day",128.8 mg/dL
same,TP,"[…], time 14 day",6 g/dL
same,gamma-GTP,"[…], time 14 day",1 IU/L
same,A/G,"[…], time 28 day",0.8
same,ALP,"[…], time 28 day",1156.4 IU/L
same,ALT,"[…], time 28 day",35 IU/L
same,AST,"[…], time 28 day",62.6 IU/L
same,BUN,"[…], time 28 day",15 mg/dL
same,CRE,"[…], time 28 day",0.2 mg/dL
same,Ca,"[…], time 28 day",10.8 mg/dL
same,Cl,"[…], time 28 day",105.6 meq/L
same,DBIL,"[…], time 28 day",0.004 mg/dL
same,GLC,"[…], time 28 day",183.8 mg/dL
same,IP,"[…], time 28 day",6 mg/dL
same,K,"[…], time 28 day",4 meq/L
same,LDH,"[…], time 28 day",64.2 IU/L
same,Na,"[…], time 28 day",142.6 meq/L
same,PL,"[…], time 28 day",159.8 mg/dL
same,RALB,"[…], time 28 day",2.8 g/dL
same,TBIL,"[…], time 28 day",0.048 mg/dL
same,TC,"[…], time 28 day",73.6 mg/dL
same,TG,"[…], time 28 day",188.4 mg/dL
same,TP,"[…], time 28 day",6.3 g/dL
same,gamma-GTP,"[…], time 28 day",1 IU/L

# — ChEMBL document CHEMBL3885861, “Open TG-GATES”
